Measured values as given in ChEMBL document CHEMBL5113438, “Discovery of highly potent and selective CRBN-recruiting EGFRL858R/T790M degraders in vivo” (Eur J Med Chem, 2022).
The source made the active and inactive calls. The rule behind the calls is not given here.

Legend:
[1] = AUC (0 to t) in Sprague-Dawley rat at 10 mg/kg, ip measured upto 24 hrs by LC-MS/MS analysis; format: ADME, organism-based; parameters: dose 10 mg/kg, time < 24 hrs, route ip; details: in vivo
NCI-H1299 [2] = assay: Induction of apoptosis in human NCI-H1299 cells assessed as late apoptotic cells at 1.0 uM incubated for 48 hrs by AnnexinV-FITC/propidium iodide staining based flow cytometry analysis (reference value: 1.53 % ); format: functional
NCI-H1299 [3] = assay: Induction of apoptosis in human NCI-H1299 cells assessed as viable cells at 0.1 uM incubated for 48 hrs by AnnexinV-FITC/propidium iodide staining based flow cytometry analysis (reference value: 98.05 % ); format: functional; details: read-out: Activity
NCI-H1975 [4] = assay: Antitumor activity against human NCI-H1975 cells xenografted in […] mouse assessed as tumor growth inhibition at 10 mg/kg, ip administered once daily for 24 days relative to control; format: functional; details: NCI-H1975, 576 h, time 24 day, read-out: TGI
NCI-H1299 [5] = assay: Induction of apoptosis in human NCI-H1299 cells assessed as late apoptotic cells at 0.1 uM incubated for 48 hrs by AnnexinV-FITC/propidium iodide staining based flow cytometry analysis (reference value: 1.53 % ); format: functional
[6] = Plasma protein binding in rat assessed as unbound fraction at 1 uM incubated for 4 hrs by rapid equilibrium dialysis method; format: ADME, cell-free; details: read-out: PPB (converted)
NCI-H1975 [7] = assay: Induction of apoptosis in human NCI-H1975 cells assessed as early apoptotic cells at 0.1 uM incubated for 48 hrs by AnnexinV-FITC/propidium iodide staining based flow cytometry analysis (reference value: 0.11 % ); format: functional
[8] = Toxicity in BALB/c mouse xenografted with human NCI-H1975 cells assessed as change in body weight pretreated with compound at 10 mg/kg, ip administered once daily for 24 days and measured every 3 days […]; format: organism-based; details: in vivo, 576 h, time 24 day
[9] = Half life in Sprague-Dawley rat at 1 mg/kg, iv measured upto 24 hrs by LC-MS/MS analysis; format: ADME, organism-based; details: in vivo
NCI-H1975 [10] = assay: Inhibition of ERK phosphorylation in human NCI-H1975 cells preincubated under serum starvation for 8 hrs followed by compound addition measured after 48 hrs by Western blot analysis; format: cell-based; details: dose 10-1000 nM, DDE = dose-dependent effect
NCI-H1299 [11] = assay: Induction of apoptosis in human NCI-H1299 cells assessed as early apoptotic cells at 0.1 uM incubated for 48 hrs by AnnexinV-FITC/propidium iodide staining based flow cytometry analysis (reference value: 0.11 % ); format: functional
[12] = tested on: Epidermal growth factor receptor (Homo sapiens), P00533 [L858R,T790M]; assay: Inhibition of EGFR L858R/T790M mutant phosphorylation in human NCI-H1975 cells at 1 uM measured after 8 hrs by Western blot assay; format: cell-based
A549 = assay: Antiproliferative activity against human A549 cells expressing wild type EGFR incubated for 72 hrs by CCK-8 assay; format: functional, cell-based; details: A549, 72 h
NCI-H1975 [13] = assay: Induction of apoptosis in human NCI-H1975 cells assessed as late apoptotic cells at 1.0 uM incubated for 48 hrs by AnnexinV-FITC/propidium iodide staining based flow cytometry analysis (reference value: 1.35 % ); format: functional
HMEC = assay: Cytotoxicity activity against HMEC cells upto 300 uM incubated for 72 hrs by CCK-8 assay; format: toxicity, cell-based; details: human
[14] = target: Protein cereblon/Epidermal growth factor receptor (Homo sapiens, UniProt P00533+Q96SW2, L858R/T790M); assay: Protac activity at CRBN/EGFR L858R/T790M mutant in human NCI-H1975 cells assessed as induction of EGFR degradation incubated for 72 hrs by Western blot analysis; format: cell-based
[15] = tested on: Epidermal growth factor receptor (Homo sapiens), P00533 [L858R,T790M]; assay: Inhibition of EGFR L858R/T790M mutant phosphorylation in human NCI-H1975 cells at 1 uM measured after 48 hrs by Western blot assay; format: cell-based
[16] = Half life in Sprague-Dawley rat at 10 mg/kg, ip measured upto 24 hrs by LC-MS/MS analysis; format: ADME, organism-based; details: in vivo
NCI-H1975 [17] = assay: Induction of apoptosis in human NCI-H1975 cells assessed as viable cells at 1.0 uM incubated for 48 hrs by AnnexinV-FITC/propidium iodide staining based flow cytometry analysis (reference value: 96.2 % ); format: functional; details: read-out: Activity
NCI-H1975 [18] = assay: Induction of apoptosis in human NCI-H1975 cells assessed as early apoptotic cells at 1.0 uM incubated for 48 hrs by AnnexinV-FITC/propidium iodide staining based flow cytometry analysis (reference value: 0.11 % ); format: functional
[19] = Cmax in Sprague-Dawley rat at 10 mg/kg, ip measured upto 24 hrs by LC-MS/MS analysis; format: ADME, organism-based; parameters: time < 24 hrs, dose 10 mg/kg, route ip; details: in vivo
L02 = assay: Cytotoxicity activity against human L02 cells upto 300 uM incubated for 72 hrs by CCK-8 assay; format: toxicity, cell-based; details: l02, 72 h
NCI-H1299 [20] = assay: Induction of apoptosis in human NCI-H1299 cells assessed as viable cells at 1.0 uM incubated for 48 hrs by AnnexinV-FITC/propidium iodide staining based flow cytometry analysis (reference value: 98.05 % ); format: functional; details: read-out: Activity
[21] = tested on: Epidermal growth factor receptor (Homo sapiens), P00533 [L858R,T790M]; assay: Inhibition of EGFR L858R/T790M mutant phosphorylation in human NCI-H1975 cells preincubated under serum starvation for 8 hrs followed by compound addition measured after 48 hrs by Western blot analysis; format: cell-based; details: dose 10-1000 nM, DDE = dose-dependent effect
NCI-H1975 [22] = assay: Induction of apoptosis in human NCI-H1975 cells assessed as viable cells at 0.1 uM incubated for 48 hrs by AnnexinV-FITC/propidium iodide staining based flow cytometry analysis (reference value: 96.2 % ); format: functional; details: read-out: Activity
[23] = AUC (0 to infinity) in Sprague-Dawley rat at 10 mg/kg, ip measured upto 24 hrs by LC-MS/MS analysis; format: ADME, organism-based; parameters: time < 24 hrs, dose 10 mg/kg, route ip; details: in vivo
[24] = Toxicity in BALB/c mouse xenografted with human NCI-H1975 cells assessed as drug tolerability at 10 mg/kg, ip administered once daily for 24 days; format: organism-based; details: in vivo, 576 h, time 24 day
[25] = Selectivity ratio IC50 for human NCI-H1299 cells expressing wild type EGFR to human NCI-H1975 cells expressing EGFR L858R/T790M; format: functional
[26] = Clearance in Sprague-Dawley rat at 1 mg/kg, iv measured upto 24 hrs by LC-MS/MS analysis; format: ADME, organism-based; details: in vivo
[27] = AUC (0 to infinity) in Sprague-Dawley rat at 1 mg/kg, iv measured upto 24 hrs by LC-MS/MS analysis; format: ADME, organism-based; parameters: dose 1 mg/kg, time < 24 hrs, route iv; details: in vivo
[28] = AUC (0 to t) in Sprague-Dawley rat at 1 mg/kg, iv measured upto 24 hrs by LC-MS/MS analysis; format: ADME, organism-based; parameters: time < 24 hrs, dose 1 mg/kg, route iv; details: in vivo
[29] = Tmax in Sprague-Dawley rat at 10 mg/kg, ip measured upto 24 hrs by LC-MS/MS analysis; format: ADME, organism-based; details: in vivo
[30] = target: Serine/threonine-protein kinase AKT (Homo sapiens) (UniProt P31751+Q9Y243+P31749); assay: Inhibition of Akt phosphorylation in human NCI-H1975 cells preincubated under serum starvation for 8 hrs followed by compound addition measured after 48 hrs by Western blot analysis; format: cell-based; details: dose 10-1000 nM, DDE = dose-dependent effect
NCI-H1299 [31] = assay: Antiproliferative activity against human NCI-H1299 cells expressing wild type EGFR incubated for 72 hrs by CCK-8 assay; format: functional, cell-based; details: NCI-H1299, 72 h

Chain of Serine/threonine-protein kinase AKT (Homo sapiens) (P31749 whole entry, looked up): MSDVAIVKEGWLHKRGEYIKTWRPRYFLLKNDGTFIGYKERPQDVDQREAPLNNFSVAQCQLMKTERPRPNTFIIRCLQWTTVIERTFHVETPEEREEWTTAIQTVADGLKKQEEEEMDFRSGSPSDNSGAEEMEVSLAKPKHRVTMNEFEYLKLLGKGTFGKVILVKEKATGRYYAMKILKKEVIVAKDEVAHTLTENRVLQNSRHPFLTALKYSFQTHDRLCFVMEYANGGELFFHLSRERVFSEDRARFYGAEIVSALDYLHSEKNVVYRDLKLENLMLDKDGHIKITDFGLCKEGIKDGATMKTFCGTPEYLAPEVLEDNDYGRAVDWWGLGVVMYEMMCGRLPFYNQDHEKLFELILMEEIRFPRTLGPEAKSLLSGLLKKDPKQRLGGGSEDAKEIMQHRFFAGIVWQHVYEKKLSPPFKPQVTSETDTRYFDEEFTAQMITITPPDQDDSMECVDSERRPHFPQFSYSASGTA
Chain of Serine/threonine-protein kinase AKT (Homo sapiens) (P31751 whole entry, looked up): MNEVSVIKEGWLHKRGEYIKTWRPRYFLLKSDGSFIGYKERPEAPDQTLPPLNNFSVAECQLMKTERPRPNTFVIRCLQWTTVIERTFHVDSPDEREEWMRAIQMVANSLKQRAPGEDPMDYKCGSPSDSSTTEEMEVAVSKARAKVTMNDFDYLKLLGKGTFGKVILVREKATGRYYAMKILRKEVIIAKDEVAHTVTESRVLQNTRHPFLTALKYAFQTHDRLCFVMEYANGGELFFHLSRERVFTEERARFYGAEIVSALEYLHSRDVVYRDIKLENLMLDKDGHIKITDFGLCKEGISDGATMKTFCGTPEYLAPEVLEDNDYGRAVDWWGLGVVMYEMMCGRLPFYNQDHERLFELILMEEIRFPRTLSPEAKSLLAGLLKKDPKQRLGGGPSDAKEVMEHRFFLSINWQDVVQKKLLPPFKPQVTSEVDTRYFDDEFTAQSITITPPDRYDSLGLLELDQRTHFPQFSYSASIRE
Chain of Serine/threonine-protein kinase AKT (Homo sapiens) (Q9Y243 whole entry, looked up): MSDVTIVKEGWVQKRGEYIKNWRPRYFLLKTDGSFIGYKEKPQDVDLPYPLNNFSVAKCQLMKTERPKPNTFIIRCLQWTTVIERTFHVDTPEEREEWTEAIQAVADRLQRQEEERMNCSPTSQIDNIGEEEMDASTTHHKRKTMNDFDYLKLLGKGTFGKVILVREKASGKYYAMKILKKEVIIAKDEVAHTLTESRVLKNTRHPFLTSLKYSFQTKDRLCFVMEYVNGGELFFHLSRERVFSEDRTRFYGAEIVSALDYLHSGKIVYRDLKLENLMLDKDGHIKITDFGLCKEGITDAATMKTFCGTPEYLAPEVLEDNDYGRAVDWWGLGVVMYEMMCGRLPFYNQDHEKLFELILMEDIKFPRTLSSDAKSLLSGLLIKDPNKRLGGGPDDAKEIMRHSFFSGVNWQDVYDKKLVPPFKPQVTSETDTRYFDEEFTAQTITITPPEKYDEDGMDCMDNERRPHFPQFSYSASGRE

| SMILES | AUC(0-t) at 24 h [1] | Activity (NCI-H1299 [2]) | viability at 0.1 µM (NCI-H1299 [3]) | inhibition in vivo at 10 mg/kg (NCI-H1975 [4]) | Activity (NCI-H1299 [5]) | fraction unbound at 4 h, 1 µM [6] | Activity (NCI-H1975 [7]) | Activity [8] | half-life [9] | inhibition (NCI-H1975 [10]) | Activity (NCI-H1299 [11]) | inhibition (INH) [12] | IC50 (A549) | Activity (NCI-H1975 [13]) | Activity (HMEC) | EC50 [14] | inhibition [15] | half-life [16] | viability at 1 µM (NCI-H1975 [17]) | Activity (NCI-H1975 [18]) | other results |
| --- | --- | --- | --- | --- | --- | --- | --- | --- | --- | --- | --- | --- | --- | --- | --- | --- | --- | --- | --- | --- | --- |
| C#CCN(CCC(=O)Nc1cccc2c1CN(C1CCC(=O)NC1=O)C2=O)CCN(C)c1cc(OC)c(Nc2nccc(-c3cn(C)c4ccccc34)n2)cc1NC(=O)C=C (stereo not drawn) | 1540 ng·h/mL | 2.15% | 97.7% | 55.2% | 1.79% | 0.001 | 1.51% | Non-Toxic | 2.29 h | Dde | 0.11% | 58% | > 100 µM | 24.3% | Non-Toxic | 0.0355 µM | Active | 2.17 h | 50.8% | 0.55% | Cmax [19]: 197 ng/mL; Activity (L02): Non-Toxic; viability at 1 µM (NCI-H1299 [20]): 97.5%; inhibition [21]: Dde; viability at 0.1 µM (NCI-H1975 [22]): 90.8%; AUC(0-inf) [23]: 1610 ng·h/mL; Activity [24]: Non-Toxic; Ratio IC50 [25]: 1721; clearance ([26]; Sprague-Dawley): 37.1 mL/min/kg; AUC(0-inf) ([27]; Sprague-Dawley): 461 ng·h/mL; AUC(0-t) at 24 h [28]: 460 ng·h/mL; Tmax [29]: 4.67 h; inhibition [30]: Dde; IC50 (NCI-H1299 [31]): > 100 µM |
| C#CCN(CCCC(=O)Nc1cccc2c1CN(C1CCC(=O)NC1=O)C2=O)CCN(C)c1cc(OC)c(Nc2nccc(-c3cn(C)c4ccccc34)n2)cc1NC(=O)C=C (stereo not drawn) | 971 ng·h/mL | 0.37% | 98% | 63.7% | 1.27% | 0.002 | 0.23% | Non-Toxic | 2.64 h | Dde | 0.22% | 56% | > 100 µM | 25.1% | Non-Toxic | 0.0132 µM | Active | 1.85 h | 69% | 0.72% | Cmax [19]: 128 ng/mL; Activity (L02): Non-Toxic; viability at 1 µM (NCI-H1299 [20]): 97.8%; inhibition [21]: Dde; viability at 0.1 µM (NCI-H1975 [22]): 85.6%; AUC(0-inf) [23]: 973 ng·h/mL; Activity [24]: Non-Toxic; Ratio IC50 [25]: 2137; CL ([26]; iv, 1 mg/kg, 24 h): 34.55 mL/min/kg; AUC ([27]; 24 h): 973 ng·h/mL; AUC(0-t) at 24 h [28]: 483 ng·h/mL; Tmax [29]: 4.5 h; inhibition [30]: Dde; IC50 (NCI-H1299 [31]): > 100 µM |
